System: HCV genotype-1a variant with glutamine 30 changed to glutamate in the NS5A protein
Format: cell-based
Settings: test compound titrated with BMS-790052 fixed at 200 nM; genotype 1a Q30E replicon
In short: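 Synergy was assessed by combining several fixed amounts of an NS5A-targeting compound with a titration of the second compound of interest.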

Compound	Fold-Synergistic 1a (Q30E) [fold]
CC(C)CC(=O)N[C@H](c1ncc(-c2ccc(-c3ccc(-c4cnc([C@@H]5CCCN5C(=O)CC(C)C)[nH]4)cc3)cc2)[nH]1)C(C)C [Compound Y-16]	>10
CC(C)(C)[C@H](NC(=O)C(=O)N1CCC(C(F)(F)F)CC1)c1nc(-c2ccc(-c3ccc(-c4c[nH]c([C@@H](NC(=O)C(=O)N5CCC(C(F)(F)F)CC5)C(C)(C)C)n4)cc3)cc2)c[nH]1 [Compound W-60]	>100
Cc1cc(C(=O)N[C@H](c2ncc(-c3ccc(-c4ccc(-c5cnc([C@@H](NC(=O)c6cc(C)oc6C)C(C)C)[nH]5)cc4)cc3)[nH]2)C(C)C)c(C)o1 [Compound S-98]	>100
CCOC(=O)N1CCC[C@H]1c1ncc(-c2ccc(-c3ccc(-c4cnc([C@@H]5CCCN5C(=O)OCC)[nH]4)cc3)cc2)[nH]1 [Compound S-217]	>10
CC(C)(C)[C@H](NC(=O)C1(c2ccc(Cl)cc2)CCC1)c1nc(-c2ccc(-c3ccc(-c4c[nH]c([C@@H](NC(=O)C5(c6ccc(Cl)cc6)CCC5)C(C)(C)C)n4)cc3)cc2)c[nH]1 [Compound N-57]	>100
CC(C)(C)[C@H](NC(=O)Cc1ccccc1F)c1nc(-c2ccc(-c3ccc(-c4c[nH]c([C@@H](NC(=O)Cc5ccccc5F)C(C)(C)C)n4)cc3)cc2)c[nH]1 [Compound N-48]	>100
CC(C)CC(=O)N[C@@H](c1nc(-c2ccc(-c3ccc(-c4c[nH]c([C@H](NC(=O)CC(C)C)C(C)C)n4)cc3)cc2)c[nH]1)C(C)C [Compound P-54.1]	>100
CC(C)(C(=O)N[C@H](c1nc(-c2ccc(-c3ccc(-c4c[nH]c([C@@H](NC(=O)C(C)(C)C(O)c5ccccn5)C(C)(C)C)n4)cc3)cc2)c[nH]1)C(C)(C)C)C(O)c1ccccn1 (single isomer, unassigned) [Compound N-128B]	>100
CC1(C(=O)N[C@H](c2nc(-c3ccc(-c4ccc(-c5c[nH]c([C@@H](NC(=O)C6(C)CCCCC6O)C(C)(C)C)n5)cc4)cc3)c[nH]2)C(C)(C)C)CCCCC1O (single isomer, unassigned) [Compound Y-104]	>100
CC(C)(C(=O)N[C@H](c1ncc(-c2ccc(-c3ccc(-c4cnc([C@@H](NC(=O)C(C)(C)C5CCCC5)C(C)(C)C)[nH]4)cc3)cc2)[nH]1)C(C)(C)C)C1CCCC1 [Compound B82]	>100
CC(C)CC(=O)NC1(c2ncc(-c3ccc(-c4ccc(-c5cnc(C6(NC(=O)CC(C)C)CCCC6)[nH]5)cc4)cc3)[nH]2)CCCC1.O=C(O)C(F)(F)F.O=C(O)C(F)(F)F [Compound N-12]	<10
CC(C)(C)OC(=O)N1CCC(C(=O)N[C@H](c2nc(-c3ccc(-c4ccc(-c5c[nH]c([C@@H](NC(=O)C6CCN(C(=O)OC(C)(C)C)CC6)C(C)(C)C)n5)cc4)cc3)c[nH]2)C(C)(C)C)CC1 [Compound S-264]	>100
CC(C)[C@H](NC(=O)Cc1ccccc1)c1ncc(-c2ccc(-c3ccc(-c4cnc([C@@H](NC(=O)Cc5ccccc5)C(C)C)[nH]4)cc3)cc2)[nH]1 [Compound S-36]	>10
CC(O)(CF)C(=O)N[C@H](c1nc(-c2ccc(-c3ccc(-c4c[nH]c([C@@H](NC(=O)C(C)(O)CF)C(C)(C)C)n4)cc3)cc2)c[nH]1)C(C)(C)C (single isomer, unassigned) [Compound N-139B]	>100
CC(C)(CC(F)(F)F)C(=O)N[C@H](c1nc(-c2ccc(-c3ccc(-c4c[nH]c([C@@H](NC(=O)C(C)(C)CC(F)(F)F)C(C)(C)C)n4)cc3)cc2)c[nH]1)C(C)(C)C [Compound Y-8]	>100
CC(C)[C@H](NC(=O)c1ccc(C(F)(F)F)cc1)c1ncc(-c2ccc(-c3ccc(-c4cnc([C@@H](NC(=O)c5ccc(C(F)(F)F)cc5)C(C)C)[nH]4)cc3)cc2)[nH]1 [Compound S-84]	>100
CC(C)(C)OC(=O)NC1(C(=O)N[C@H](c2nc(-c3ccc(-c4ccc(-c5c[nH]c([C@@H](NC(=O)C6(NC(=O)OC(C)(C)C)CC6(F)F)C(C)(C)C)n5)cc4)cc3)c[nH]2)C(C)(C)C)CC1(F)F (single isomer, unassigned) [Compound W-13]	>100
O=C(OCc1ccccc1)N1CCC[C@H]1c1ncc(-c2ccc(-c3ccc(-c4cnc([C@@H]5CCCN5C(=O)OCc5ccccc5)[nH]4)cc3)cc2)[nH]1 [Compound S-216]	>10
CC(C)[C@H](N[S@@+]([O-])C(C)(C)C)c1ncc(-c2ccc(-c3ccc(-c4cnc([C@@H](N[S@+]([O-])C(C)(C)C)C(C)C)[nH]4)cc3)cc2)[nH]1 [Compound Y-60]	>100
CC(C)(C)[C@H](NC(=O)C1CCC(F)(F)CC1)c1ncc(-c2ccc(-c3ccc4c(ccc5nc([C@@H](NC(=O)C6CCC(F)(F)CC6)C(C)(C)C)[nH]c54)c3)cc2)[nH]1 [Compound B17]	>100
CC(C)[C@H](NC(=O)CCC(C)(C)C)c1ncc(-c2ccc(-c3ccc(-c4cnc([C@@H](NC(=O)CCC(C)(C)C)C(C)C)[nH]4)cc3)cc2)[nH]1 [Compound P-81]	>100
CC(C)[C@H](NC(=O)CCN1CCOCC1)c1ncc(-c2ccc(-c3ccc(-c4cnc([C@@H](NC(=O)CCN5CCOCC5)C(C)C)[nH]4)cc3)cc2)[nH]1 [Compound S-62]	<10
CC(C)(C)[C@H](NC(=O)c1ccc(C(F)(F)F)s1)c1nc(-c2ccc(-c3ccc(-c4c[nH]c([C@@H](NC(=O)c5ccc(C(F)(F)F)s5)C(C)(C)C)n4)cc3)cc2)c[nH]1 [Compound N-114]	>100
CC(C)(C)CC(=O)NC1(C(=O)N[C@H](c2nc(-c3ccc(-c4ccc(-c5c[nH]c([C@@H](NC(=O)C6(NC(=O)CC(C)(C)C)CCCCC6)C(C)(C)C)n5)cc4)cc3)c[nH]2)C(C)(C)C)CCCCC1 [Compound W-254]	>100
CC(C)CC(=O)NC1(c2ncc(-c3ccc(-c4ccc(-c5cnc(C6(NC(=O)CC(C)C)CC6)[nH]5)cc4)cc3)[nH]2)CC1.O=C(O)C(F)(F)F.O=C(O)C(F)(F)F [Compound N-21]	<10
CC(C)[C@H](NC(=O)C1(C)CCCCC1)c1ncc(-c2ccc(-c3ccc(-c4cnc([C@@H](NC(=O)C5(C)CCCCC5)C(C)C)[nH]4)c(OC(F)F)c3)cc2)[nH]1 [Compound Y-12]	>100
O=C(N1CCC(F)(F)CC1)C1(c2nc(-c3ccc(-c4ccc(-c5c[nH]c(C6(C(=O)N7CCC(F)(F)CC7)CCC6)n5)cc4)cc3)c[nH]2)CCC1 [Compound P-137]	>10
CC(C)(OCC(F)(F)F)C(=O)N[C@H](c1nc(-c2ccc(-c3ccc(-c4c[nH]c([C@@H](NC(=O)C(C)(C)OCC(F)(F)F)C(C)(C)C)n4)cc3)cc2)c[nH]1)C(C)(C)C [Compound Y-2]	>100
COc1cc2ccccc2c(C(=O)N[C@H](c2ncc(-c3ccc(-c4ccc(-c5cnc([C@@H](NC(=O)c6nc(OC)cc7ccccc67)C(C)C)[nH]5)cc4)cc3)[nH]2)C(C)C)n1 [Compound Y-19]	>100
CC(C)C(NC(=O)C1(C)CCC(F)(F)CO1)c1ncc(-c2ccc(-c3ccc(-c4cnc(C(NC(=O)C5(C)CCC(F)(F)CO5)C(C)C)n4C)cc3)cc2)n1C (stereo not drawn) [Compound B-201]	>10
